In patent US8394848B2, “Compounds that modulate intracellular calcium” (Calcimedica, Inc., priority 2008, dated 2013):

tested on: JR251 or RBL cells; experiment: Store-operated calcium entry, either JR251 or RBL cells, or both; assay type: cell-based
Outline: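 FLIPR calcium-entry readout in fluo-4-loaded cells held in Ca2+-free HBSS before calcium add-back. For RBL-2H3, store depletion used thapsigargin for 25 min after a 5 min compound pre-incubation, and IC50 was based on the 7 s Upslope. For Orai1/STIM1 stable cells, compound was pre-incubated 30 min and IC50 was based on Peak-Basal.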

**Q.** Which IC50 does the source give for `O=C(O)c1c(-c2ccc(Br)cc2)csc1NC(=O)C1Cc2ccccc2C1` [4-(4-bromophenyl)-2-(2,3-dihydro-1H-indene-2-carboxamido)thiophene-3-carboxylic acid] here?
**A.** Its IC50 is less than 10 µM.

**Q.** `O=C(Nc1scc(-c2ccc(Br)cc2)c1C(=O)O)c1cc2c(F)cccn2n1` [4-(4-bromophenyl)-2-(4-fluoropyrazolo[1,5-a]pyridine-2-carboxamido)thiophene-3-carboxylic acid] was tested. Which IC50 did it give?
**A.** Its IC50 is less than 10 µM.

**Q.** With `O=C(Nc1scc(-c2ccc(Br)c(F)c2F)c1C(=O)O)c1nc2ccccc2o1` [2-(benzo[d]oxazole-2-carboxamido)-4-(4-bromo-2,3-difluorophenyl)thiophene-3-carboxylic acid] as the molecule, how does the IC50 read?
**A.** Its IC50 is less than 10 µM.

**Q.** How did the IC50 turn out when `O=C(Nc1scc(-c2ccc(Br)cc2)c1C(=O)O)c1cc2sccc2[nH]1` [4-(4-bromophenyl)-2-(4H-thieno[3,2-b]pyrrole-5-carboxamido)thiophene-3-carboxylic acid] was run?
**A.** The IC50 was less than 10 µM.

**Q.** With `O=C(Nc1scc(-c2ccc(Cl)cc2)c1C(=O)O)c1ccsc1` [4-(4-chlorophenyl)-2-(thiophene-3-carboxamido)thiophene-3-carboxylic acid] as the molecule, how does the IC50 read?
**A.** The IC50 was less than 10 µM.

**Q.** With `Cc1cc(-c2csc(NC(=O)c3cc4ccccc4o3)c2C(=O)O)c(C)cc1Br` [2-(benzofuran-2-carboxamido)-4-(4-bromo-2,5-dimethylphenyl)thiophene-3-carboxylic acid] as the molecule, how does the IC50 read?
**A.** Its IC50 is less than 10 µM.

**Q.** `O=C(O)c1c(-c2ccc(Cl)cc2)csc1NC(=O)C(Cl)Cc1ccccc1Cl` (stereo not shown) [2-(2-chloro-3-(2-chlorophenyl)propanamido)-4-(4-chlorophenyl)thiophene-3-carboxylic acid] was tested. Which IC50 did it give?
**A.** Its IC50 is less than 10 µM.

**Q.** How did the IC50 turn out when `CCc1cccc(NC(=O)Nc2scc(-c3ccc(Br)cc3)c2C(=O)O)c1` [4-(4-bromophenyl)-2-(3-(3-ethylphenyl)ureido)thiophene-3-carboxylic acid] was run?
**A.** Its IC50 is less than 10 µM.

**Q.** How did the IC50 turn out when `O=C(Nc1scc(-c2ccc(Cl)c(Cl)c2)c1C(=O)O)c1nc2ccccc2o1` [2-(benzo[d]oxazole-2-carboxamido)-4-(3,4-dichlorophenyl)thiophene-3-carboxylic acid] was run?
**A.** Its IC50 is less than 10 µM.

**Q.** With `Cc1cccc2nc(C(=O)Nc3scc(-c4ccc(Cl)cc4)c3C(=O)O)oc12` [4-(4-chlorophenyl)-2-(7-methylbenzo[d]oxazole-2-carboxamido)thiophene-3-carboxylic acid] as the molecule, how does the IC50 read?
**A.** Its IC50 is less than 10 µM.

**Q.** How did the IC50 turn out when `O=C(Nc1scc(-c2cc3cccc(O)c3o2)c1C(=O)O)c1cc2ccccc2o1` [2-(benzofuran-2-carboxamido)-4-(7-hydroxybenzofuran-2-yl)thiophene-3-carboxylic acid] was run?
**A.** The IC50 was less than 10 µM.

**Q.** With `N#C/C(=C\c1ccco1)C(=O)Nc1scc(-c2ccc(Cl)cc2)c1C(=O)O` [(E)-4-(4-chlorophenyl)-2-(2-cyano-3-(furan-2-yl)acrylamido)thiophene-3-carboxylic acid] as the molecule, how does the IC50 read?
**A.** Its IC50 is less than 10 µM.

**Q.** With `O=C(Nc1scc(OC(=O)c2cc3ccccc3o2)c1C(=O)O)c1cc2ccccc2o1` [4-(benzofuran-2-carbonyloxy)-2-(benzofuran-2-carboxamido)thiophene-3-carboxylic acid] as the molecule, how does the IC50 read?
**A.** The IC50 was less than 10 µM.

**Q.** With `Cc1ccsc1C(=O)Nc1scc(-c2ccccc2Br)c1C(=O)O` [4-(2-bromophenyl)-2-(3-methylthiophene-2-carboxamido)thiophene-3-carboxylic acid] as the molecule, how does the IC50 read?
**A.** Its IC50 is less than 10 µM.

**Q.** Which IC50 does the source give for `Cc1ccc(-c2csc(NC(=O)c3nc4cc(Cl)ccc4o3)c2C(=O)O)c(F)c1F` [2-(5-chlorobenzo[d]oxazole-2-carboxamido)-4-(2,3-difluoro-4-methylphenyl)thiophene-3-carboxylic acid] here?
**A.** The IC50 was less than 10 µM.

**Q.** For `Cn1cnc(C(=O)Nc2scc(-c3ccc(Br)cc3)c2C(=O)O)c1` [4-(4-bromophenyl)-2-(1-methyl-1H-imidazole-4-carboxamido)thiophene-3-carboxylic acid], which IC50 is on record?
**A.** The IC50 was less than 10 µM.

**Q.** `O=C(Nc1scc(-c2ccc(Cl)c(F)c2)c1C(=O)O)c1nc2ccccc2o1` [2-(benzo[d]oxazole-2-carboxamido)-4-(4-chloro-3-fluorophenyl)thiophene-3-carboxylic acid] was tested. Which IC50 did it give?
**A.** Its IC50 is less than 10 µM.

**Q.** For `O=C(Nc1scc(-c2ccc(Cl)cc2F)c1C(=O)O)c1nc2ccccc2s1` [2-(benzo[d]thiazole-2-carboxamido)-4-(4-chloro-2-fluorophenyl)thiophene-3-carboxylic acid], which IC50 is on record?
**A.** The IC50 was less than 10 µM.

**Q.** How did the IC50 turn out when `N#Cc1cccc2nc(C(=O)Nc3scc(-c4ccc(Br)cc4)c3C(=O)O)oc12` [4-(4-bromophenyl)-2-(7-cyanobenzo[d]oxazole-2-carboxamido)thiophene-3-carboxylic acid] was run?
**A.** The IC50 was less than 10 µM.

**Q.** For `O=C(Nc1scc(-c2ccc(Cl)cc2)c1C(=O)O)c1ccc(-c2ccccc2)s1` [4-(4-chlorophenyl)-2-(5-phenylthiophene-2-carboxamido)thiophene-3-carboxylic acid], which IC50 is on record?
**A.** Its IC50 is less than 10 µM.

**Q.** Which IC50 does the source give for `O=C(Nc1scc(-c2ccc(F)cc2F)c1C(=O)O)c1nc2ccccc2o1` [2-(benzo[d]oxazole-2-carboxamido)-4-(2,4-difluorophenyl)thiophene-3-carboxylic acid] here?
**A.** Its IC50 is less than 10 µM.

**Q.** `Cc1ccsc1C(=O)Nc1scc(-c2ccc(Br)cc2)c1C(=O)O` [4-(4-bromophenyl)-2-(3-methylthiophene-2-carboxamido)thiophene-3-carboxylic acid] was tested. Which IC50 did it give?
**A.** Its IC50 is less than 10 µM.

**Q.** `O=C(O)c1c(-c2ccc(Cl)cc2)csc1NC(=O)N1Cc2ccccc2C1` [4-(4-chlorophenyl)-2-(isoindoline-2-carboxamido)thiophene-3-carboxylic acid] was tested. Which IC50 did it give?
**A.** Its IC50 is less than 10 µM.

**Q.** How did the IC50 turn out when `Cc1ccc(-c2csc(NC(=O)c3nc4ccc(F)cc4o3)c2C(=O)O)c(F)c1F` [4-(2,3-difluoro-4-methylphenyl)-2-(6-fluorobenzo[d]oxazole-2-carboxamido)thiophene-3-carboxylic acid] was run?
**A.** Its IC50 is less than 10 µM.

**Q.** With `O=C(Nc1scc(-c2c(F)cc(F)cc2F)c1C(=O)O)c1cc2ccccc2o1` [2-(benzofuran-2-carboxamido)-4-(2,4,6-trifluorophenyl)thiophene-3-carboxylic acid] as the molecule, how does the IC50 read?
**A.** The IC50 was less than 10 µM.

**Q.** `O=C(O)c1c(-c2ccc(Cl)cc2)csc1NC(=O)c1csc2nnsc12` [4-(4-chlorophenyl)-2-(thieno[2,3-d][1,2,3]thiadiazole-6-carboxamido)thiophene-3-carboxylic acid] was tested. Which IC50 did it give?
**A.** Its IC50 is less than 10 µM.

**Q.** With `O=C(Nc1scc(-c2ccc(F)c(F)c2F)c1C(=O)O)c1nc2ccccc2o1` [2-(benzo[d]oxazole-2-carboxamido)-4-(2,3,4-trifluorophenyl)thiophene-3-carboxylic acid] as the molecule, how does the IC50 read?
**A.** The IC50 was less than 10 µM.

**Q.** Which IC50 does the source give for `O=C(O)c1c(-c2ccc(Br)cc2)csc1Nc1nc(-c2ccccc2)no1` [4-(4-bromophenyl)-2-(3-phenyl-1,2,4-oxadiazol-5-ylamino)thiophene-3-carboxylic acid] here?
**A.** Its IC50 is less than 10 µM.

**Q.** For `O=C(Nc1scc(-c2ccc(Cl)cc2)c1C(=O)O)c1cc2nccnc2s1` [4-(4-chlorophenyl)-2-(thieno[2,3-b]pyrazine-6-carboxamido)thiophene-3-carboxylic acid], which IC50 is on record?
**A.** Its IC50 is less than 10 µM.

**Q.** `O=C(Nc1scc(-c2ccc(Br)cc2)c1C(=O)O)c1nc2ccccc2s1` [2-(benzo[d]thiazole-2-carboxamido)-4-(4-bromophenyl)thiophene-3-carboxylic acid] was tested. Which IC50 did it give?
**A.** The IC50 was less than 10 µM.

**Q.** For `COc1ccc2oc(C(=O)Nc3scc(-c4ccc(C)c(F)c4F)c3C(=O)O)nc2c1` [4-(2,3-difluoro-4-methylphenyl)-2-(5-methoxybenzo[d]oxazole-2-carboxamido)thiophene-3-carboxylic acid], which IC50 is on record?
**A.** Its IC50 is less than 10 µM.

**Q.** `O=C(Nc1scc(-c2ccc(Cl)cc2)c1C(=O)O)c1ncc(-c2ccccc2)cn1` [4-(4-chlorophenyl)-2-(5-phenylpyrimidine-2-carboxamido)thiophene-3-carboxylic acid] was tested. Which IC50 did it give?
**A.** The IC50 was less than 10 µM.

**Q.** For `Cc1cc(C#N)ccc1-c1csc(NC(=O)c2nc3ccccc3o2)c1C(=O)O` [2-(benzo[d]oxazole-2-carboxamido)-4-(4-cyano-2-methylphenyl)thiophene-3-carboxylic acid], which IC50 is on record?
**A.** The IC50 was less than 10 µM.

**Q.** With `O=C(CCc1ccccc1)Nc1scc(-c2ccc(Cl)cc2F)c1C(=O)O` [4-(4-chloro-2-fluorophenyl)-2-(3-phenylpropanamido)thiophene-3-carboxylic acid] as the molecule, how does the IC50 read?
**A.** The IC50 was less than 10 µM.

**Q.** How did the IC50 turn out when `O=C(Nc1scc(-c2ccc(Cl)cc2)c1C(=O)O)c1nc2cc(Cl)ccc2o1` [2-(5-chlorobenzo[d]oxazole-2-carboxamido)-4-(4-chlorophenyl)thiophene-3-carboxylic acid] was run?
**A.** The IC50 was less than 10 µM.

**Q.** How did the IC50 turn out when `O=C(Nc1scc(-c2ccc(Cl)c(Cl)c2)c1C(=O)O)c1ccsc1` [4-(3,4-dichlorophenyl)-2-(thiophene-3-carboxamido)thiophene-3-carboxylic acid] was run?
**A.** Its IC50 is less than 10 µM.

**Q.** With `O=C(O)c1c(-c2ccc(Cl)cc2)csc1NC(=O)C1COc2ccccc2O1` (stereo not shown) [4-(4-chlorophenyl)-2-(2,3-dihydrobenzo[b][1,4]dioxine-2-carboxamido)thiophene-3-carboxylic acid] as the molecule, how does the IC50 read?
**A.** Its IC50 is less than 10 µM.

**Q.** `O=C(Nc1scc(-c2ccc(Cl)cc2)c1C(=O)O)c1ccc2nnsc2c1` [2-(benzo[d][1,2,3]thiadiazole-6-carboxamido)-4-(4-chlorophenyl)thiophene-3-carboxylic acid] was tested. Which IC50 did it give?
**A.** The IC50 was less than 10 µM.

**Q.** How did the IC50 turn out when `O=C(Nc1scc(-c2ccc(Cl)cc2)c1C(=O)O)c1cc2occc2[nH]1` [4-(4-chlorophenyl)-2-(4H-furo[3,2-b]pyrrole-5-carboxamido)thiophene-3-carboxylic acid] was run?
**A.** Its IC50 is less than 10 µM.

**Q.** With `Cc1ccc(-c2csc(NC(=O)c3nc4ccccc4o3)c2C(=O)O)cc1C` [2-(benzo[d]oxazole-2-carboxamido)-4-(3,4-dimethylphenyl)thiophene-3-carboxylic acid] as the molecule, how does the IC50 read?
**A.** Its IC50 is less than 10 µM.

**Q.** Which IC50 does the source give for `O=C(O)c1c(-c2ccc(Cl)cc2)csc1NC(=O)C(F)Cc1cc(F)ccc1Cl` (stereo not shown) [2-(3-(2-chloro-5-fluorophenyl)-2-fluoropropanamido)-4-(4-chlorophenyl)thiophene-3-carboxylic acid] here?
**A.** The IC50 was less than 10 µM.

**Q.** How did the IC50 turn out when `O=C(Nc1scc(-c2ccc(Cl)cc2)c1C(=O)O)c1cc2ncccn2n1` [4-(4-chlorophenyl)-2-(pyrazolo[1,5-a]pyrimidine-2-carboxamido)thiophene-3-carboxylic acid] was run?
**A.** The IC50 was less than 10 µM.

**Q.** Which IC50 does the source give for `O=C(O)c1c(-c2ccc(Br)cc2)csc1NC(=O)C(F)Cc1ccc(F)cc1Cl` (stereo not shown) [4-(4-bromophenyl)-2-(3-(2-chloro-4-fluorophenyl)-2-fluoropropanamido)thiophene-3-carboxylic acid] here?
**A.** Its IC50 is less than 10 µM.
